According to ChEMBL document CHEMBL1201862, “PubChem BioAssay data set” (2004):
Calls of active or inactive are those of the source.

Tests used:
[1] = NIH-3T3 fibroblast cytotoxicity, dose response, cytotoxicity control, cell-based, fluorescence, Alamar Blue, secondary assay (AID 2327); type: functional;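 also: NIH-3T3 mouse fibroblasts cultured with fluconazole at 8 µg/mL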
Cytochrome P450 1A2 = molecular target: T1, Cytochrome P450 1A2 (Homo sapiens, UniProt P05177);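 also: PubChem cytochrome P450 panel assay, CYP1A2 panel member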
T1 sequence (P05177 whole entry): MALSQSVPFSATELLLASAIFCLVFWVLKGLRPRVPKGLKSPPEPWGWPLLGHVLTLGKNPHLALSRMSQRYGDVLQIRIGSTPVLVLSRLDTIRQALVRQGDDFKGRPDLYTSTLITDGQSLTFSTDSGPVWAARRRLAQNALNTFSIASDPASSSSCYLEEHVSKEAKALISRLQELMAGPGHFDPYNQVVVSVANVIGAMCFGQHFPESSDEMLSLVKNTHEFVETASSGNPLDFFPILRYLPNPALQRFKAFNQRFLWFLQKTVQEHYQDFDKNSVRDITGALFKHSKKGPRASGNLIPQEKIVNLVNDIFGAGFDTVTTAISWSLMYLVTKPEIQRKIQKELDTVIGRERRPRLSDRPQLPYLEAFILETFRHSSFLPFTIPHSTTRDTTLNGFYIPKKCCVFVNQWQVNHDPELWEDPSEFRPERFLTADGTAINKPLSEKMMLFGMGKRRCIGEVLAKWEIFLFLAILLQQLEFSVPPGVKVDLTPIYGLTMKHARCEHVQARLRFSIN

[2] = viability loss in HeLa cells – cytotoxicity control for MgcRacGAP inhibitor project, dose response (AID 624300); type: functional
[3] = system: Streptococcus sp. 'group A'; assay: Streptococcus pyogenes SK(-)GAS viability under kanamycin – luminescence, BacTiterGlo, confirmation, counter-screen for streptokinase expression inhibitor project, dose response (AID 1900); type: functional, organism-based
[4] = Luminescence Cell-Based Dose Response HTS to Identify Inhibitors of 5'UTR Stem-Loop Driven Prion Protein mRNA Translation in H4 Neuroglioblastoma Cells. [Related pubchem assays: 1827 (Project Summary), 1813 (Primary HTS)]; type: functional
[5] = molecular target: T2, Replicative DNA helicase DnaB (Mycobacterium tuberculosis, UniProt P9WMR3); assay: DnaB intein splicing inhibitors, dose response, biochemical, cell-free fluorescence (AID 449749); type: functional
T2 sequence (P9WMR3 whole entry): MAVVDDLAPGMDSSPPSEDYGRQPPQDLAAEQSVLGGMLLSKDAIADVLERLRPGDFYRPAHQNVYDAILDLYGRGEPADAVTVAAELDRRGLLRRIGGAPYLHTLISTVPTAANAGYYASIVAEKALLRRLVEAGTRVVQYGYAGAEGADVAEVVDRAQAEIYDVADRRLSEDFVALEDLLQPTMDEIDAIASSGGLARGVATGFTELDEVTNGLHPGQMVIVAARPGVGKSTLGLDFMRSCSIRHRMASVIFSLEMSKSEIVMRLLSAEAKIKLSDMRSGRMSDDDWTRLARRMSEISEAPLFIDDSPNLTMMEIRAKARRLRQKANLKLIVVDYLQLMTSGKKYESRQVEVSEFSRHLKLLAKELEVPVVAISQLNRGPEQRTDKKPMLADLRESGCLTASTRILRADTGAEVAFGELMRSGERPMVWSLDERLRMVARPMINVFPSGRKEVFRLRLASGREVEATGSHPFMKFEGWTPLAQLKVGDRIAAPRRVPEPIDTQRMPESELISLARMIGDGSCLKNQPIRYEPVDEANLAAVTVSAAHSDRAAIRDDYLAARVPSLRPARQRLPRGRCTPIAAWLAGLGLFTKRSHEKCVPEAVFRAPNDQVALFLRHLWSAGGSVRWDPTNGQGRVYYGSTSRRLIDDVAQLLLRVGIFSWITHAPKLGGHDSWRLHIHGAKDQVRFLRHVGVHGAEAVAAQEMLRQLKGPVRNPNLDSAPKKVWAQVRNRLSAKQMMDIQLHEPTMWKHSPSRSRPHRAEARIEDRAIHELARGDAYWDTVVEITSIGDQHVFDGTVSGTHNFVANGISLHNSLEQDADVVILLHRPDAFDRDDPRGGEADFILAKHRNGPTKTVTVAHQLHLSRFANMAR

[6] = molecular target: Dual specificity mitogen-activated protein kinase kinase 1 (Homo sapiens, UniProt Q02750); assay: Navigating the Kinome. Panel member name: MAP2K1; type: functional
Dual specificity mitogen-activated protein kinase kinase 1, sequence (Q02750 whole entry): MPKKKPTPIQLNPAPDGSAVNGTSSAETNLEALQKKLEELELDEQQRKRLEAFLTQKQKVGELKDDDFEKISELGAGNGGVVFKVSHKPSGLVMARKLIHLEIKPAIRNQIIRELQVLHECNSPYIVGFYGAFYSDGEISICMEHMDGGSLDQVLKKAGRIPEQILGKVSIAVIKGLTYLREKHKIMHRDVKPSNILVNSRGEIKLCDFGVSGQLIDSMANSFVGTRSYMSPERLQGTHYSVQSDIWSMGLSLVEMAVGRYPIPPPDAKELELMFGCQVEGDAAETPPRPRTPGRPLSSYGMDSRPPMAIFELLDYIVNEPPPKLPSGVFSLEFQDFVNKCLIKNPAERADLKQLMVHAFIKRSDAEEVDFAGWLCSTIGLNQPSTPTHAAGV

[7] = molecular target: Eukaryotic elongation factor 2 kinase (Homo sapiens, UniProt O00418); type: functional
[8] = molecular target: Proto-oncogene tyrosine-protein kinase ROS (Homo sapiens, UniProt P08922); type: functional;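 also: ROS1 tested as one member of a kinome-wide kinase panel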
[9] = molecular target: Homeodomain-interacting protein kinase 2 (Homo sapiens, UniProt Q9H2X6); type: functional;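 also: measured within a kinome-wide kinase profiling panel, HIPK2 being one panel member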
[10] = molecular target: Proto-oncogene tyrosine-protein kinase Src (Homo sapiens, UniProt P12931); type: functional;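 also: SRC entry within a kinome-wide kinase profiling panel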
Proto-oncogene tyrosine-protein kinase Src, sequence (P12931 2-536 limits assumed): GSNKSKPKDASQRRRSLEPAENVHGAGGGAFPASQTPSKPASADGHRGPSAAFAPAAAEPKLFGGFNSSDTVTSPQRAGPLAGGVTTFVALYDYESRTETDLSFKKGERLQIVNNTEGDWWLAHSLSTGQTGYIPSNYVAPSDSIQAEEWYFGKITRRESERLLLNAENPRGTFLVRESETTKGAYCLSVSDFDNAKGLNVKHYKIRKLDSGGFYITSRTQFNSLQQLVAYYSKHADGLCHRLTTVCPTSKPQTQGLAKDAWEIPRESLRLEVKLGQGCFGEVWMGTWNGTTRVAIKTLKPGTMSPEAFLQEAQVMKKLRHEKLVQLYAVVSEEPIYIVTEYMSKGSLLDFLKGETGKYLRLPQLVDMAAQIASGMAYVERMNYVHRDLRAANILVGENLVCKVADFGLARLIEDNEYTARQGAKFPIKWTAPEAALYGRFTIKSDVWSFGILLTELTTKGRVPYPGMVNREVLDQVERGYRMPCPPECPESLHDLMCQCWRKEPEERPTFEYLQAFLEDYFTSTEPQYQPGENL

[11] = molecular target: Dual specificity tyrosine-phosphorylation-regulated kinase 3 (Homo sapiens, UniProt O43781); type: functional;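 also: measured as one member of a broad kinase panel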
Dual specificity tyrosine-phosphorylation-regulated kinase 3, sequence (O43781 whole entry): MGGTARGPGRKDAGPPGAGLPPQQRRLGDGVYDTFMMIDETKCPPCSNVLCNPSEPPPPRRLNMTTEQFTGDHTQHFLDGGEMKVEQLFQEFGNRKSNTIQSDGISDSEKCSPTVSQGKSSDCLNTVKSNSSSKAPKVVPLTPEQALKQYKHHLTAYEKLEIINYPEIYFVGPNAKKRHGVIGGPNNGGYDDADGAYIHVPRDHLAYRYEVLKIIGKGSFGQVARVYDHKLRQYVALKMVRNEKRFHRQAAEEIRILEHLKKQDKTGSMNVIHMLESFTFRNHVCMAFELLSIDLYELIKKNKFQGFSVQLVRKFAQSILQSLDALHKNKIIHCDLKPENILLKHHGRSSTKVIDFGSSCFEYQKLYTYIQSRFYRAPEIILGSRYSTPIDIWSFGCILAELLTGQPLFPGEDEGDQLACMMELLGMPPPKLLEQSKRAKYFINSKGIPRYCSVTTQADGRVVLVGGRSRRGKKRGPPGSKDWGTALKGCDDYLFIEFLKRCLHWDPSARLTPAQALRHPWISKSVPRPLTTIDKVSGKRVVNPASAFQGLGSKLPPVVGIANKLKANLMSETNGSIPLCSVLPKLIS

[12] = molecular target: Receptor tyrosine-protein kinase erbB-2 (Homo sapiens, UniProt P04626); assay: Navigating the Kinome. Panel member name: ERBB2; type: functional
Receptor tyrosine-protein kinase erbB-2, sequence (P04626 whole entry): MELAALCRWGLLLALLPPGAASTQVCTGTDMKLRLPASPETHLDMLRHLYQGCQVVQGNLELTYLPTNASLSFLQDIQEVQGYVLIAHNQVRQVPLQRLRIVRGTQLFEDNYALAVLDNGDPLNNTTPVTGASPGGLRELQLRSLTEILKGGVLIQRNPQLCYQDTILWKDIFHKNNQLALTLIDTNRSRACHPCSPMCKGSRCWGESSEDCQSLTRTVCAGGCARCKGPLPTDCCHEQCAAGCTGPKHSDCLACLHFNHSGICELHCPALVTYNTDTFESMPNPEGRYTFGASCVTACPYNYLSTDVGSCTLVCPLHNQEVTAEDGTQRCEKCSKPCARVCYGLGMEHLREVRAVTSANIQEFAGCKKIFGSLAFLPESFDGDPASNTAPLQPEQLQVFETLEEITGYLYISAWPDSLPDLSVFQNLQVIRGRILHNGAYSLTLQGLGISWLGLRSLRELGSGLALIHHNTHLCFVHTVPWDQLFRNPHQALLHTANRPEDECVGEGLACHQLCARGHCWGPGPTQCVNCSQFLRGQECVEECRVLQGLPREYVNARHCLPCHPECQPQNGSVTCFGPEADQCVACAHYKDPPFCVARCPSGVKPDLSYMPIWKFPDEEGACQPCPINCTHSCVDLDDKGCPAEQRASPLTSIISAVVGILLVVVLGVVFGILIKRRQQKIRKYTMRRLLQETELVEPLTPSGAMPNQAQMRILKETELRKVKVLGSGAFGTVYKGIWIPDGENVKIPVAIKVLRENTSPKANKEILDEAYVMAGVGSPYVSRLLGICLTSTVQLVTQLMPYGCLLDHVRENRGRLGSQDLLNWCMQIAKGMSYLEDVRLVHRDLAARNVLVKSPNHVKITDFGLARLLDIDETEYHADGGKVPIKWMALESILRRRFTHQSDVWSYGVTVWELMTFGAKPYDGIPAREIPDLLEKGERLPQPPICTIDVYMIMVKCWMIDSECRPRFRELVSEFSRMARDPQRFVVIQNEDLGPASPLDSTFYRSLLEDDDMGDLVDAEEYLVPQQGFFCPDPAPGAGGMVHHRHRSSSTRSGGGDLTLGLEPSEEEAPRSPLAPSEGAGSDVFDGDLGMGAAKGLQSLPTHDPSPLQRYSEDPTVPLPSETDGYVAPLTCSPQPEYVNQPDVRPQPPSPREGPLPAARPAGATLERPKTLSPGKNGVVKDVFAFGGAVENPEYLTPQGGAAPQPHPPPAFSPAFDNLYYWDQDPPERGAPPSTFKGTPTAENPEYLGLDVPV

[13] = molecular target: RAC-alpha serine/threonine-protein kinase (Homo sapiens, UniProt P31749); type: functional;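 also: AKT1 affinity measured as one member of a kinome-wide kinase profiling panel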
[14] = molecular target: Rho-associated protein kinase 1 (Homo sapiens, UniProt Q13464); type: functional;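 also: measured within a broad kinome-wide panel profiling many kinases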
[15] = molecular target: Receptor tyrosine-protein kinase erbB-4 (Homo sapiens, UniProt Q15303); type: functional;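 also: ERBB4 member of a kinome-wide kinase profiling panel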
Receptor tyrosine-protein kinase erbB-4, sequence (Q15303 whole entry): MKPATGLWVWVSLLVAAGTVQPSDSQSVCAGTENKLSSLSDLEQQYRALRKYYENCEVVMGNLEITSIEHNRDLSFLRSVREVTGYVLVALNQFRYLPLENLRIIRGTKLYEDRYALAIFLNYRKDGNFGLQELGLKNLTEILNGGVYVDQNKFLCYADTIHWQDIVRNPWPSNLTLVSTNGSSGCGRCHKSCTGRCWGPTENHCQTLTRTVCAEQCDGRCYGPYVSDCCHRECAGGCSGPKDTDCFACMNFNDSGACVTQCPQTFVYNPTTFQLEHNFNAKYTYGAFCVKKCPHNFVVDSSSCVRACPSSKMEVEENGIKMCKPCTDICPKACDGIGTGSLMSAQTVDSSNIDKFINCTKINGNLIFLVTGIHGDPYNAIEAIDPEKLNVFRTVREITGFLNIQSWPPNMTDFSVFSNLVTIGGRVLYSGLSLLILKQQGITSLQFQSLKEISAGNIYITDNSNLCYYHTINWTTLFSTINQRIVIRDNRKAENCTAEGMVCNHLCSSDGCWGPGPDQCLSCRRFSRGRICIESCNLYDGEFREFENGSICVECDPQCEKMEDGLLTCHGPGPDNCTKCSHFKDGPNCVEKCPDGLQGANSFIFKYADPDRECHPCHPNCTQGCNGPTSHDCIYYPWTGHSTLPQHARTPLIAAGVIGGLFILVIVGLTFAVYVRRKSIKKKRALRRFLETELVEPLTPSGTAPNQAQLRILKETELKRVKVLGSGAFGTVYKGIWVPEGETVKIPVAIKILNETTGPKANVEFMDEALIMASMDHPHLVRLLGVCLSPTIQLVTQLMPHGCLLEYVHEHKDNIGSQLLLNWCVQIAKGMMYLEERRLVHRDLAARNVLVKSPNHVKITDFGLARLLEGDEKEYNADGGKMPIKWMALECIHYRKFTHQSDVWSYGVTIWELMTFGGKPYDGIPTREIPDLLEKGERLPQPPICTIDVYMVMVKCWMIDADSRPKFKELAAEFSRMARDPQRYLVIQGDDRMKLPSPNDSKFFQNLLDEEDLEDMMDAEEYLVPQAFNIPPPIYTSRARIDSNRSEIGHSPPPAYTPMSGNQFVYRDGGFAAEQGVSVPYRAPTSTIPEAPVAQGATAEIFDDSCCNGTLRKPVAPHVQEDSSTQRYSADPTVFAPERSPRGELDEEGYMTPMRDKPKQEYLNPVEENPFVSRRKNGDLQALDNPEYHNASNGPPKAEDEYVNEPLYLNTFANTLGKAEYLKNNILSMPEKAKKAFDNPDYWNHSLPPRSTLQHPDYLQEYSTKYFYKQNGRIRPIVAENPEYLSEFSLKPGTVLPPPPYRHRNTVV

[16] = molecular target: Lymphokine-activated killer T-cell-originated protein kinase (Homo sapiens, UniProt Q96KB5); type: functional;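 also: value comes from a kinase panel screen in which TOPK was one of the panel members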
Lymphokine-activated killer T-cell-originated protein kinase, sequence (Q96KB5 whole entry): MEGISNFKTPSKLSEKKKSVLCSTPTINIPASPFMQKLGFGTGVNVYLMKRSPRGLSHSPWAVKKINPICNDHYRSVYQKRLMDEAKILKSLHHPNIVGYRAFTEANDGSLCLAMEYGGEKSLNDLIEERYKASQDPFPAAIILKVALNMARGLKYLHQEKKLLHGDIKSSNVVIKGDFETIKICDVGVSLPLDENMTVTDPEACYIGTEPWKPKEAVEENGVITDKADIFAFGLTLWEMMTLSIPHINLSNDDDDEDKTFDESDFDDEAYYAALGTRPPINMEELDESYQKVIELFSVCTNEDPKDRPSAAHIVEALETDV

[17] = molecular target: Dual specificity tyrosine-phosphorylation-regulated kinase 1A (Homo sapiens, UniProt Q13627); type: functional;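 also: measured against DYRK1A as one member of a broad kinome profiling panel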
[18] = molecular target: Calcium/calmodulin-dependent protein kinase type II subunit alpha (Homo sapiens, UniProt Q9UQM7); assay: Navigating the Kinome. Panel member name: CAMK2A; type: functional
Calcium/calmodulin-dependent protein kinase type II subunit alpha, sequence (Q9UQM7 whole entry): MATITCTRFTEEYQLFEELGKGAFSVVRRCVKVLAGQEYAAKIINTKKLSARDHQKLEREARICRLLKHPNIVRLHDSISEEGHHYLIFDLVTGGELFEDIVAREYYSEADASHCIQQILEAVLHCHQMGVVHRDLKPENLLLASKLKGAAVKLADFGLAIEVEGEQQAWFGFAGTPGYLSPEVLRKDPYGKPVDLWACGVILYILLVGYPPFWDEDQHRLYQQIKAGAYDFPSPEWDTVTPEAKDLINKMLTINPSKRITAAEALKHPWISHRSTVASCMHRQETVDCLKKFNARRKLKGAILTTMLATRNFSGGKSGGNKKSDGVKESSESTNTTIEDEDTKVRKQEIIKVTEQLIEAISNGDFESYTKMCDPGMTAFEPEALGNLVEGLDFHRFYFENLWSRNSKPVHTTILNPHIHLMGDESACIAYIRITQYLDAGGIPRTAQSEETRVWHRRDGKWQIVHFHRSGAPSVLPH

[19] = molecular target: Serine/threonine-protein kinase 3 (Homo sapiens, UniProt Q13188); type: functional;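 also: measured as one member of a kinome-wide kinase panel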
ORF 73 = ORF 73 (Human herpesvirus 8, UniProt O40947); assay: KSHV LANA DNA-binding disruption – biochemical, fluorescence polarization, cherry-picked samples, dose response (AID 504725); design: species or system Human gammaherpesvirus 8;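 also: fluorescence polarization of a labeled DNA duplex reporting LANA DNA binding; potency is for inhibitors that block LANA binding to the DNA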

CN(C)S(=O)(=O)Oc1cccc(C(=O)Nc2ccc(Cl)c(Cl)c2)c1
EC50 [1]: > 150 µM (inactive) | AC50 (Cytochrome P450 1A2): 2 µM (inconclusive)

Cc1ccc2[nH]c(/C(C#N)=C/c3ccc(O)c(O)c3)nc2c1
CC50 [2]: 100 µM (active)

COC(=O)C1CN(C#N)N(c2ccc(Cl)cc2)C12c1ccccc1-c1ccccc12 (stereo unspecified)
EC50 [3]: 4.31 µM (active) | EC50 [4]: 10.1 µM (active) | AC50 [5]: 3.16 µM (active)

Nc1noc2cccc(-c3cccc(O)c3)c12
Ki [6]: 1.58 µM (active) | Ki [7]: > 3.98 µM (inactive) | Ki [8]: > 2 µM (inactive) | Ki [9]: > 3.16 µM (inactive) | Ki [10]: 1.26 µM (active) | Ki [11]: > 6.31 µM (inactive) | Ki [12]: > 1.58 µM (inactive) | Ki [13]: > 7.94 µM (inactive) | Ki [14]: 1 µM (active) | Ki [15]: > 3.98 µM (inactive) | Ki [16]: > 10 µM (inactive) | Ki [17]: 2 µM (active) | Ki [18]: 50.1 µM (active) | Ki [19]: 6.31 µM (active)

O=C1NC(=S)S/C1=C\C=C\c1ccc([N+](=O)[O-])o1
AC50 (ORF 73): 71.4 µM (active)
